From article PMC12528448, “Resistance to CDK7 inhibitors directed by acquired mutation of a conserved residue in cancer cells” (The EMBO Journal, 2025) come the findings set out here.

Holding throughout (format): cell-based, human
In one assay the test system is MCF7 cells. Nature of the assay: Growth assay (SRB), MCF7. Particulars: for % Growth: biological reps. As for the experimental part: (§1) To determine the IC50 of drug treatments on growth, cells were seeded in 96-well culture plates. Two days after seeding, the cells were treated with increasing concentrations of drugs and incubated for 4 days. Cell number was determined using the SRB assay (Skehan et al, [1990]), and IC50 values were calculated using non-linear regression curve fitting in GraphPad Prism v10. For all other growth experiments, cells were seeded into 96-well plates, and appropriate drugs were added 2 days after seeding. Cells were then incubated in an IncuCyte Zoom live-cell imager, with cell confluency measured every 6 h. Cell doubling times were determined by non-linear curve fitting (exponential growth equation) in GraphPad Prism v10.

Assay [1] has as its system MCF7 CDK12-D819N mutant cells. As to the kind of experiment: Growth assay (SRB), MCF7 CDK12-D819N knock-in. To be noted: for % Growth: MCF7 CDK12 D819N, biological reps. As for the experimental part:
as §1
Alt-R^TM S.p. Cas9 nuclease V3, Alt-R CRISPR-Cas9 crRNA, TracrRNA and the donor templates were obtained from Integrated DNA Technologies. […] Cells were treated with 0.7 µM of Alt-R HDR Enhancer V2 to improve HRD efficiency. Sequences of the CRISPRs in the crRNA and the donor templates are shown in the Reagents and tools table. Donor templates were designed to include non-coding substitutions to aid genome DNA PCR for identifying knock-in events and to facilitate cloning; these substitutions are noted in the Reagents and tools table.

In assay [2] the test system is PolII Ser2 phosphorylation, cyclin K and CDK12 levels in MCF7 cells. As to the kind of experiment: Immunoblotting after CDK12 drugs, MCF7. To be noted: WT MCF7; 6 h; immunoblot. The method, then: (§2) Whole-cell lysates were prepared in RIPA buffer (Sigma-Aldrich), supplemented with protease and phosphatase inhibitor cocktails (Roche). Protein sample concentrations were determined using the Pierce BCA Protein Assay kit (ThermoFisher Scientific). In all, 10–20 µg of total protein was loaded for each sample and resolved on 4–15% Mini-PROTEAN TGX Precast Protein Gels (BIO-RAD). Immunoblotting was performed as described (Patel et al, [2018]), using antibodies diluted 1:1000 for P-CDK2 (Thr160; 2561S), CDK2 (2546S), P-Rb (Ser807/811; 9308), Rb (9309), CDK7 (2916) and CDK12 (11973S), from Cell Signalling Technology. PolII CTD phosphorylation antibodies (P-Ser2 (ab5095) and P-Ser5 (ab5131), used at 1:10,000 dilution), as well as total PolII (ab817; 1:2000 dilution) and β-actin (ab6276; 1:100,000 dilution) were purchased from Abcam. CCNK antibody (Thermofisher A301-939A) was used at a 1:1000 dilution. Band intensities were quantified using ImageJ (Schneider et al, [2012]).
In general terms: A western blot detects proteins with antibodies after separation by electrophoresis.

For assay [3], the system named is PolII Ser2 phosphorylation, CCNK and CDK12 levels in MCF7-CDK12-D819N cells. Nature of the assay: Immunoblotting after CDK12 drugs, MCF7-CDK12-D819N. Particulars: 6 h, immunoblot. The method, then:
as §2

Where “and” joins values, the source holds several entries; their conditions need not be identical. Identical values can stand only once.

As usually defined, the IC50 is the concentration needed to halve the response being measured. Low values mean greater potency in that assay, high ones weaker potency in that assay. For the compound `CC[C@H](CO)Nc1nc(NCc2ccc(-c3ccccn3)cc2)c2ncn(C(C)C)c2n1` [(R)-CR8], the half-maximal inhibitory concentration (IC50) with MCF7 cells (4 days, SRB) was 84.5 nM; in assay [1] (MCF7 CDK12-D819N, SRB), 1060 nM. Besides, the “% Growth” value was 113.64% and 90.46% and 92.99% with MCF7 cells (Log10 Conc. (nM) 0.09, 4 days); 122.04% and 94.84% and 85.58% in the assay on MCF7 cells (Log10 Conc. (nM) 0.69, 4 days); 76.32% and 89.54% and 75.98% with MCF7 cells (Log10 Conc. (nM) 1.29, 4 days); 57.39% and 71.11% and 59.97% in the assay on MCF7 cells (Log10 Conc. (nM) 1.89, 4 days); 115.95% and 88.99% and 104.00% in the assay on MCF7 cells (Log10 Conc. (nM) -0.52, 4 days); 101.40% and 88.53% and 107.01% in the assay with MCF7 cells (Log10 Conc. (nM) -1.12, 4 days). The “% Growth” value is 94.80% and 70.33% and 88.48% in assay [1] (Log10 Conc. (nM) 0.09); 98.42% and 96.39% and 105.30% in assay [1] (Log10 Conc. (nM) 0.69); 84.25% and 91.23% and 97.75% in assay [1] (Log10 Conc. (nM) 1.29); 95.93% and 89.18% and 103.58% in assay [1] (Log10 Conc. (nM) 1.89); 84.48% and 84.10% and 82.39% in assay [1] (Log10 Conc. (nM) 2.49); 97.14% and 75.33% and 99.34% in assay [1] (Log10 Conc. (nM) -0.52). For the same compound, in assay [1] (Log10 Conc. (nM) -1.12), the “% Growth” value was 97.97% and 74.35% and 85.17%. Besides, the “Fold Resistance” value in assay [1] (MCF7 CDK12-D819N vs MCF7) is recorded as 12.6 fold. For the same compound, the “Levels of cyclin K and CDK12” value in assay [2] is “reduced”. For the same compound, the “PolII Ser2 phosphorylation” value in assay [2] is “reduced”. Moreover, the “CCNK and CDK12 levels” value in assay [3] is “not reduced”. The “PolII phosphorylation” value in assay [3] was “not inhibited”.
